This experiment has as its system MIN6 pancreatic beta cells. Nature of the experiment: Glucose stimulated insulin secretion assay in MIN6 cells (mouse insulin ELISA). Type of experiment: cell-based. As to conditions: 100 nM, positive control; FIG. 5A. The protocol: To verify that the glucose homeostasis is regulated through liver or hepatocytes by overexpression of Plac9 in an insulin-independent manner, an in vitro insulin secretion assay was performed on confluent pancreatic beta cells, MIN6, in each well treated by […] of Exendin-4 or different concentrations of recombinant Plac9 of mouse origin at 10, 100 and 1000 nM (n=8) and measured the insulin content of each well by a mouse insulin ELISA kit. […] A glucose uptake assay was performed on primary hepatocytes and hepatic cell line, HepG2, treated with different concentrations (from 0.125 or 0.25 to 1.0 μM) in the presence or absence of exogenous 10 nM insulin, and the results are shown in FIGS. 5B and 5C, respectively.
In general terms: In an ELISA, binding on a coated surface is turned into a signal by an enzyme label.

Regarding Exendin-4 [reference compound], the insulin secretion result is “significantly induces insulin secretion”.

The values above are taken from patent US20250114431A1, “COMPOUND, COMPOSITION AND METHODS FOR LOWERING CIRCULATING GLUCOSE” (THE HONG KONG POLYTECHNIC UNIVERSITY, priority 2023, published 2025).
